{"source": "patent US20210379040A1", "about": "“COMBINATION TREATMENT OF LIVER DISORDERS” (Terns Pharmaceuticals, Inc., priority 2020, published 2021)", "key": {"[1]": {"test": "Single-ascending dose clinical trial: plasma PK and safety", "quoted_text": "SSAO inhibition was determined by measuring relative reductions in plasma H2O2 generation after addition of an exogenous substrate (benzylamine). […] Safety was assessed for 7 (±3) days after dosing.\nPlasma PK parameters were determined by non-compartmental analysis. […] Percent change in total amine oxidase activity was determined relative to the corresponding pre-dose (baseline) samples."}, "plasma SSAO": {"biological_target": "T1, plasma SSAO (Homo sapiens, UniProt Q16853)", "T1 construct": "from tissue; host or cells: plasma of healthy participants", "T1 sequence (Q16853 27-763 limits assumed)": "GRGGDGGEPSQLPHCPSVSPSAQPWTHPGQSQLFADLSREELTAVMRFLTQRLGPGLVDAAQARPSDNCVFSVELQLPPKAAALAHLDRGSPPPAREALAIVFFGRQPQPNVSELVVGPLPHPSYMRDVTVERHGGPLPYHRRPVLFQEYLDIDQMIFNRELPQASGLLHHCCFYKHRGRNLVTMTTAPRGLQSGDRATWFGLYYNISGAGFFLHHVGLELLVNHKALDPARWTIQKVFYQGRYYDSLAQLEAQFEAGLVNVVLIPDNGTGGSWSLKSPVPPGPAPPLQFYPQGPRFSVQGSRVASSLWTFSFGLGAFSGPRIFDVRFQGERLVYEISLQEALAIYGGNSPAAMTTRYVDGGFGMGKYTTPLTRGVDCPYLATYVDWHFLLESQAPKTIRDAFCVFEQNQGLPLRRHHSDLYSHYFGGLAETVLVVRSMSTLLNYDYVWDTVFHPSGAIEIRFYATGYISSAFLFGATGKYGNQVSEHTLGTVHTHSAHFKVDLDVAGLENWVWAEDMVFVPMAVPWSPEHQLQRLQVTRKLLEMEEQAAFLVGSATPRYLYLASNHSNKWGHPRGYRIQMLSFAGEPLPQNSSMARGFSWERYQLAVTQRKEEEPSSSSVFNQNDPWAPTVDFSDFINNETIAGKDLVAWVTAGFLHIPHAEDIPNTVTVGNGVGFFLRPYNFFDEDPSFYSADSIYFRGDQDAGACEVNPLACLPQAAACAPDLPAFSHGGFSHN", "test": "Single-ascending dose clinical trial: plasma amine oxidase activity and methylamine", "type": "in vivo", "method": "Safety was assessed for 7 (±3) days after dosing.\nPlasma PK parameters were determined by non-compartmental analysis.\nSSAO-specific amine oxidase levels in plasma were determined using a kinetic-based assay essentially as described previously (Schilter et al). Endogenous monoamine oxidases A and B were inhibited by adding pargyline to plasma samples prior to measuring H2O2 generation levels in placebo and active recipients. Maximum inhibition was defined by pre-dose (baseline) samples additionally treated with a high dose of Compound 2 and percent changes in SSAO-specific activity were calculated relative to baseline samples."}, "[2]": {"test": "PK/PD profile, single oral dose", "type": "in vivo", "conditions": "cynomolgus monkey, plasma, cynomolgus monkeys; for AUC(0-t): read-out: AUC0-24", "method": "Pharmacokinetics data is presented in Table 3, and were determined by non-compartmental analysis."}, "[3]": {"tested_on": "FXR-regulated gene expression in human HuH7 hepatoma cells", "test": "cells", "conditions": "Huh-7, 11 h", "quoted_text": "EC50 values for FXR-regulated gene expression were determined using a cell-based RNA assay."}, "[4]": {"test": "Clinical study, Second Study (7 days daily oral dosing)", "conditions": "for AUC: human, in vivo, po"}, "[5]": {"test": "Pharmacokinetics assay, monkey", "type": "in vivo, cynomolgus monkeys", "conditions": "plasma, iv, Cynomolgus Monkey, intravenously 0.3 mg/kg", "excerpt": "(§1) Results are shown in FIG. 1A (IV administration) and FIG. 1B (oral administration), and in Table 2. […] Smaller Vdss in monkeys is correlated with higher plasma protein binding."}, "[6]": {"tested_on": "FXR-regulated gene expression in liver and ileum", "test": "Mechanism of action: tissue RNA by RT-qPCR and RNAseq after single oral dose", "conditions": "C57BL/6 mice, single oral 10 mg/kg, 6 hours", "quoted_text": "The RNA was analyzed by RT-qPCR and RNAseq.\nFor RNAseq analysis, mRNA was extracted from total liver and sequenced using standard Illumina library preparation and sequencing protocols. Differentially expressed genes (DEG) were determined using RSEM and edgeR software packages and analyzed using Advaita Bio's iPathwayGuide software."}, "[7]": {"test": "Tissue distribution of radiolabeled (14C) compound, oral 5 mg/kg", "type": "in vivo", "conditions": "Long-Evans rats, oral 5 mg/kg (100 μCi/kg), up to 168 hours", "method": "Plasma, liver, small intestine, cecum, kidney, lung, heart and skin tissue samples were collected up to 168 hours, and the amount of radioactive material at various time points was measured."}, "rat hepatocytes": {"tested_on": "rat hepatocytes", "test": "In vitro metabolic stability in cryopreserved hepatocytes (rat)", "type": "in vitro ADME", "conditions": "Sprague-Dawley Rat", "method": "In vitro half-life values were determined and scaled to predict hepatic clearance (CLpred) and hepatic extraction using the well-stirred liver model with no correction for plasma protein as described in Obach et al., The Prediction of Human Pharmacokinetic Parameters from Preclinical and In Vitro Metabolism Data, J. of Pharmacology and Experimental Therapeutics, vol. 283, no. 1, pp. 46-58 (1997)."}, "[8]": {"test": "Pharmacokinetics assay, rat", "type": "in vivo, Sprague-Dawley (SD) rats", "conditions": "plasma, Sprague-Dawley Rat", "excerpt": "as §1"}}, "note": "Like-named read-outs stand apart in the source and are kept apart here."}
{"smiles": "COC1CCN(c2ncc(OC/C(=C/F)CN)cn2)CC1", "note": "[Compound 2]", "values": [{"measurement": "plasma PK exposure increase with dose", "setting": "[1]; between the 3 and 10 mg dose levels, single oral dose", "value": "greater than dose proportional"}, {"measurement": "tolerability", "setting": "[1]; doses 1, 3, 6, and 10 mg, single dose", "value": "well tolerated"}, {"measurement": "adverse events or laboratory abnormalities", "setting": "[1]; healthy humans, single oral dose 1-10 mg", "value": "No clinically relevant adverse events or laboratory abnormalities were reported"}, {"measurement": "half-life", "setting": "[1]; male, human, plasma, po, 10 mg", "value": "1 to 3", "unit": "h"}, {"measurement": "inhibition of plasma SSAO activity", "setting": "plasma SSAO; 4 hours post-dose, all dose cohorts (1, 3, 6, 10 mg single dose)", "value": "near complete inhibition"}, {"measurement": "duration of continued suppression of plasma SSAO activity", "setting": "plasma SSAO; after a single dose", "value": "up to 1 week"}, {"measurement": "plasma methylamine", "setting": "plasma SSAO; single dose 1, 3, 6, 10 mg", "value": "Dose-dependent increases"}]}
{"smiles": "Cn1cc(C(=O)O)c2ccc(N3CCC(OCc4c(-c5c(Cl)cccc5Cl)noc4C4CC4)CC3)cc21", "note": "[Compound 1]", "values": [{"measurement": "Cmax", "setting": "[2]; oral 0.3 mg/kg", "value": "58.8 ± 30.2", "unit": "ng/mL"}, {"measurement": "Tmax", "setting": "[2]; oral 0.3 mg/kg", "value": "2.17 ± 1.47", "unit": "h"}, {"measurement": "AUC(0-t)", "setting": "[2]; oral 0.3 mg/kg", "value": "196 ± 64", "unit": "ng·h/mL"}, {"measurement": "Cmax", "setting": "[2]; oral 1 mg/kg", "value": "257 ± 124", "unit": "ng/mL"}, {"measurement": "Tmax", "setting": "[2]; oral 1 mg/kg", "value": "1.83 ± 1.17", "unit": "h"}, {"measurement": "AUC(0-t)", "setting": "[2]; oral 1 mg/kg", "value": "1000 ± 419", "unit": "ng·h/mL"}, {"measurement": "Cmax", "setting": "[2]; oral 5 mg/kg", "value": "709 ± 458", "unit": "ng/mL"}, {"measurement": "Tmax", "setting": "[2]; oral 5 mg/kg", "value": "2.25 ± 1.47", "unit": "h"}, {"measurement": "AUC(0-t)", "setting": "[2]; oral 5 mg/kg", "value": "2720 ± 1500", "unit": "ng·h/mL"}, {"measurement": "EC50", "setting": "[3]; read-out: EC50, BSEP Gene induction/HuH7", "value": 40, "unit": "nM"}, {"measurement": "EC50", "setting": "[3]; read-out: EC50, FGF-19 Gene Induction/HuH7", "value": 40, "unit": "nM"}, {"measurement": "EC50", "setting": "[3]; read-out: EC50, SHP Gene induction/HuH7", "value": 50, "unit": "nM"}, {"measurement": "Pruritus", "setting": "[4]; Compound 1 25 mg oral daily for 7 days", "value": "No"}, {"measurement": "Pruritus", "setting": "[4]; Compound 1 75 mg oral daily for 7 days", "value": "No"}, {"measurement": "Pruritus", "setting": "[4]; Compound 1 150 mg oral daily for 7 days", "value": "No"}, {"measurement": "AUC", "setting": "[4]; 25 mg", "value": 645, "unit": "ng·h/mL"}, {"measurement": "AUC", "setting": "[4]; 75 mg", "value": 1480, "unit": "ng·h/mL"}, {"measurement": "AUC", "setting": "[4]; 150 mg", "value": 2160, "unit": "ng·h/mL"}, {"measurement": "Pruritus", "setting": "[4]; subjects taking the highest doses", "value": "no pruritus was observed"}, {"measurement": "clearance", "setting": "[5]", "value": 5, "unit": "mL/min/kg"}, {"measurement": "half-life", "setting": "[5]; read-out: IV Terminal t1/2 (converted)", "value": 1.32, "unit": "h"}, {"measurement": "Vd", "setting": "[5]; read-out: Vdss", "value": 0.6, "unit": "L/kg"}, {"measurement": "induction of FXR-specific genes, liver versus ileum (RT-qPCR)", "setting": "[6]", "value": "preferentially induces FXR-specific genes in the liver"}, {"measurement": "tissues with the most radioactive material", "setting": "[7]", "value": "Liver, small intestine, and cecum had the most radioactive material"}, {"measurement": "Hepatic Extraction", "setting": "rat hepatocytes", "value": "47.3 ± 0.78", "unit": "%"}, {"measurement": "In vitro Metabolic CLpred", "setting": "rat hepatocytes; well-stirred liver model", "value": "26.2 ± 0.5", "unit": "mL/min/kg"}, {"measurement": "clearance", "setting": "[8]; iv, intravenously 1 mg/kg", "value": 42.5, "unit": "mL/min/kg"}, {"measurement": "half-life", "setting": "[8]; iv, intravenously 1 mg/kg, read-out: IV Terminal t1/2 (converted)", "value": 2.45, "unit": "h"}, {"measurement": "Vd", "setting": "[8]; iv, intravenously 1 mg/kg, read-out: Vdss", "value": 1.31, "unit": "L/kg"}, {"measurement": "bioavailability", "setting": "[8]; po, orally 10 mg/kg", "value": 21, "unit": "%"}]}
